Reference: patent US20080076824A1, “Compounds That Inhibit Replication Of Human Immunodeficiency Virus” (priority 2004, published 2008)
Values joined by “and” are separate entries in the source; they are usually repeats but may differ in a detail not shown here. Equal values may be shown once. “Also recorded” adds a separate entry of the source. Where a name gives a salt, the structure may show the parent alone. Read-outs that look alike come from different tables or passages of the source.

Assays:
HIV-2 (ROD) = experiment: microbe, parasite or virus in culture; assay type: cell-based; details: Human immunodeficiency virus 2, CCRF-CEM, read-out: EC50 (CEM) HIV-2 (ROD)
Description: Human T-lymphocytic CEM cells (4.5×10^5 cells per ml) were suspended in fresh cell culture medium and infected with HIV-1 (IIIB and NL4.3) or HIV-2 (ROD or EHO) at 100 CCID50 (1 CCID50 being the virus dose infective for 50% of the cell cultures) per ml of cell suspension. Then, 100 μl of the infected cell suspension were transferred to microplate wells, mixed with 100 μl of appropriate (freshly prepared) dilutions of the test compounds (i.e., at final concentrations of […]), and were further incubated at 37° C. After 4 to 5 days, giant cell formation was recorded microscopically in the CEM cell cultures. […] (See Table 1).
(§1) MT-4, C8166 or CEM cells (4 to 5×10^5 cells per ml) were suspended in fresh culture medium (RPMI-1640 medium supplemented with 10% fetal bovine serum (FBS) (BioWittaker Europe, Verviers, Belgium), 2 mM L-glutamine and […] NaHCO3). Subsequently, the cells were infected with HIV-1 (IIIB) or HIV-2(ROD) at ˜100 CCID50 (1 CCID50 being the dose infective for 50% of the cell cultures) per ml of cell suspension. Then, 100 μl of the infected cell suspension were transferred to 96-well microplate wells, mixed with 100 μl of the appropriate (5-fold) dilutions of the test compounds and further incubated at 37° C. After 4 to 5 days, giant cell formation was recorded microscopically in the CEM and C8166 cell cultures. The MT-4 cell cultures were treated with trypan blue and the number of viable cells was determined.

HIV-2(ROD) = experiment: microbe, parasite or virus in culture
Description: as §1

HIV-1 (IIIB) = experiment: microbe, parasite or virus in culture; details: Human immunodeficiency virus 1, IIIB
Description: as §1

HIV (SF2 virus) [1] = experiment: HIV infectivity assay, SF2-infected H9 cells, reverse transcriptase (RT) quantification in supernatant; assay type: cell-based; details: for RT mean / RT / OD405-620 / OD405-620 - Blank: fetal calf serum; for RT mean: mean of replicates; for RT: single replicate; for RT / OD405-620 / OD405-620 - Blank: listed as αHGA, hydrochloride
HIV (SF2 virus) [2] = experiment: HIV infectivity assay, SF2-infected H9 cells, p24 quantification; assay type: cell-based; details: hydrochloride
Description: The remaining wells were filled with sterile distilled water. The cell culture plates were incubated at 37° C. and 5% CO2. After four days the medium was changed, after eight days the medium was changed and the cells were collected. After 11 days, the infection was stopped, the cells were viewed in a 10× magnification microscope and 650 μl of each cell supernatant was collected and frozen at −80° C. for further analysis. After five more days, the supernatants were thawed and used in a conventional reverse transcriptase (RT) activity assay (e.g., Roche AMPLICOR MONITOR™) or a p24 quantification assay (e.g., Abbott Laboratories, Chicago). (See U.S. Pat. No. 6,258,932 and U.S. patent application Ser. No. 10/235,158, both of which are hereby expressly incorporated by reference in its entireties).
[…] The cells in the samples were counted and then centrifuged. The cells were then resuspended in 10 ml of RPMI 1640 (containing fetal calf serum) and either […] Metabolite X or 100 μM GPG-NH2. Uninfected control and untreated control samples were also included in the experiment. The samples were then incubated overnight at 37° C. at 5% CO2.
Then, the amount of p24 in the samples was analysed using a conventional p24 detection assay (see U.S. Pat. No. 6,258,932).
Three replicate samples (“replicates”) of uninfected samples and untreated samples were also included in the experiment as controls. The inhibition of HIV replication was monitored by quantifying the levels of p24 using a conventional detection kit.
Three replicates of unninfected samples and untreated samples were also included in the experiment as controls.

NC(=O)C(N)O (stereo not drawn) [AlphaHGA, α-Hydroxy-glycinamide hydrochloride]
EC50 (HIV-2 (ROD)): 52 ± 23 µM | EC50 (HIV-2(ROD); Human immunodeficiency virus 2, C8166, read-out: EC50 (C8166) HIV-2 (ROD)): 125 µM | EC50 (HIV-2(ROD); Human immunodeficiency virus 2, MT4, read-out: EC50 (MT-4) HIV-2 (ROD)): ≥ 500 µM | EC50 (HIV-2(ROD); read-out: EC50 (MT-4) HIV-2 (ROD), Table 20): ≥ 500 µM | EC50 (HIV-1 (IIIB); C8166, read-out: EC50 (C8166) HIV-1 (IIIB)): 200 µM | EC50 (HIV-1 (IIIB); MT4, read-out: EC50 (MT-4) HIV-1 (IIIB)): ≥ 500 µM | EC50 (HIV-1 (IIIB); MT4, read-out: EC50 (MT-4) HIV-1(IIIB)): ≥ 500 µM | RT mean (HIV (SF2 virus) [1]; 0.5 μM): 7539 pg/mL | RT (HIV (SF2 virus) [1]; 0.5 μM): 6982 pg/mL and 9916 pg/mL and 5721 pg/mL | OD405-620 (HIV (SF2 virus) [1]; 0.5 μM): 0.692 and 0.962 and 0.576 | OD405-620 - Blank (HIV (SF2 virus) [1]; 0.5 μM): 0.666 and 0.936 and 0.55 | RT mean (HIV (SF2 virus) [1]; 1 μM): 4594 pg/mL | RT (HIV (SF2 virus) [1]; 1 μM): 5590 pg/mL and 4482 pg/mL and 3710 pg/mL | OD405-620 (HIV (SF2 virus) [1]; 1 μM): 0.564 and 0.462 and 0.391 | OD405-620 - Blank (HIV (SF2 virus) [1]; 1 μM): 0.538 and 0.436 and 0.365 | RT mean (HIV (SF2 virus) [1]; 2 μM): 5934 pg/mL | RT (HIV (SF2 virus) [1]; 2 μM): 8003 pg/mL and 6492 pg/mL and 3308 pg/mL | RT mean (HIV (SF2 virus) [1]; 4 μM): 5315 pg/mL | RT (HIV (SF2 virus) [1]; 4 μM): 5340 pg/mL and 4688 pg/mL and 5916 pg/mL | OD405-620 (HIV (SF2 virus) [1]; 4 μM): 0.541 and 0.481 and 0.594 | OD405-620 - Blank (HIV (SF2 virus) [1]; 4 μM): 0.515 and 0.455 and 0.568 | RT mean (HIV (SF2 virus) [1]; 8 μM): 5300 pg/mL | RT (HIV (SF2 virus) [1]; 8 μM): 6688 pg/mL and 4971 pg/mL and 4242 pg/mL | OD405-620 (HIV (SF2 virus) [1]; 8 μM): 0.665 and 0.507 and 0.44 | OD405-620 - Blank (HIV (SF2 virus) [1]; 8 μM): 0.639 and 0.481 and 0.414 | RT mean (HIV (SF2 virus) [1]; 16 μM): 1134 pg/mL | RT (HIV (SF2 virus) [1]; 16 μM): 1514 pg/mL and 666 pg/mL and 1221 pg/mL | OD405-620 (HIV (SF2 virus) [1]; 16 μM): 0.189 and 0.111 and 0.162 | OD405-620 - Blank (HIV (SF2 virus) [1]; 16 μM): 0.163 and 0.085 and 0.136 | HIV replication at 25 μM (HIV (SF2 virus) [1]; 25 μM): neglible levels | RT mean (HIV (SF2 virus) [1]; 32 μM): 72 pg/mL | RT (HIV (SF2 virus) [1]; 32 μM): 48 pg/mL and 70 pg/mL and 97 pg/mL | OD405-620 (HIV (SF2 virus) [1]; 32 μM): 0.269 and 0.373 and 0.497 | OD405-620 - Blank (HIV (SF2 virus) [1]; 32 μM): 0.243 and 0.347 and 0.471 | IC50 (HIV (SF2 virus) [1]; Human immunodeficiency virus 1, H9, 264 h): 6 to 9 µM | stability to incubation at 37° C. (HIV (SF2 virus) [1]; diluted sample, antiretroviral activity compared with freshly diluted compound): stable to incubation at 37 °C for at least three days | concentration for appreciable inhibition of HIV replication (HIV (SF2 virus) [1]; whether heat-treated or not): above 8 μM | concentration for better antiretroviral activity (HIV (SF2 virus) [1]; whether heat-treated or not): above 16 μM | concentration for very efficient inhibition of HIV replication (HIV (SF2 virus) [1]; whether heat-treated or not): above 30 μM | OD1 (HIV (SF2 virus) [2]; 50 μM, fetal calf serum, replicates (1)-(3)): 0.183 and 0.232 and 0.147 | OD2 (HIV (SF2 virus) [2]; 50 μM, fetal calf serum): 0.185 and 0.216 and 0.139 | conc p24 (HIV (SF2 virus) [2]; 50 μM, fetal calf serum): 0.26 ng/mL and 0.33 ng/mL and 0.20 ng/mL | mean OD (HIV (SF2 virus) [2]; 50 μM, fetal calf serum): 0.184 and 0.224 and 0.143 | mean OD - blank (HIV (SF2 virus) [2]; 50 μM, fetal calf serum): 0.142 and 0.182 and 0.101 | inhibition of HIV, accumulation of p24, compared with reference (HIV (SF2 virus) [2]; fetal calf serum): as effectively as GPG-NH2; also recorded: as effectively as G-NH2 | inhibition of HIV replication, accumulation of p24 (HIV (SF2 virus) [2]; human serum): effective inhibitors of HIV replication in human serum; also recorded: inhibited HIV replication in human serum
